Earlier results, collected in patent publication US10117956B2, “Radiolabeled active targeting pharmaceutical composition and the use thereof” (Institute of Nuclear Energy Research Atomic Energy Council, …, priority 2013, dated 2018).

Conditions: 30 minutes after injection

concentration in the blood: 1.11 % ID/g
SMILES: O=C[C@H](O)[C@@H](O)[C@H](O)[C@H](O)CF [6-FDG, 6-fluoro-6-deoxy-D-glucose]
